Experimental data published in patent US5512687A, “Compounds for inhibiting immune response” (Procept, Inc., priority 1994, dated 1996).
Like-named read-outs stand apart in the source and are kept apart here.

What was measured:
[1] = test system: human peripheral blood lymphocyte (PBL) proliferation; assay type: cell-based
Jurkat cell line = assay: in vitro toxicity study, cytotoxicity (Jurkat cell); assay type: cell-based

Row | Compound | IC50 [1] [µg/mL] | Cytotoxicity (Jurkat cell) IC50 (Jurkat cell line) [µg/mL] | Cytotoxicity (Jurkat cell) IC50 (Jurkat cell line; values are extrapolated) [µg/mL]
1 | Cn1cc[n+]([Ru-3]([n+]2ccn(C)c2)([n+]2ccn(C)c2)([n+]2ccn(C)c2)([n+]2ccn(C)c2)[n+]2ccn(C)c2)c1.F[P-](F)(F)(F)(F)F.F[P-](F)(F)(F)(F)F.F[P-](F)(F)(F)(F)F [Ru(1-MeIm)6 !(PF6)3] | 0.19 ± 0.16 | 115 | –
2 | Cn1cc[n+]([Ru-4]([n+]2ccn(C)c2)([n+]2ccn(C)c2)([n+]2ccn(C)c2)([n+]2ccn(C)c2)[n+]2ccn(C)c2)c1.[Cl-].[Cl-] [Ru(1-MeIm)6 !Cl2] | 0.052 ± 0.03 | 2000 | –
3 | Cn1cc[n+]([Ru-3]([n+]2ccn(C)c2)([n+]2ccn(C)c2)([n+]2ccn(C)c2)([n+]2ccn(C)c2)[n+]2ccn(C)c2)c1.[Cl-].[Cl-].[Cl-] [Ru(1-MeIm)6 !Cl3] | 0.12 ± 0.1 | > 300 | –
4 | [Cl-].[Cl-].c1c[n+]([Ru-4]([n+]2cc[nH]c2)([n+]2cc[nH]c2)([n+]2cc[nH]c2)([n+]2cc[nH]c2)[n+]2cc[nH]c2)c[nH]1 [Ru(Im)6 !Cl2] | 0.0067 ± 0.003 | 200 | –
5 | [Cl-].[Cl-].[Cl-].c1c[n+]([Ru-3]([n+]2cc[nH]c2)([n+]2cc[nH]c2)([n+]2cc[nH]c2)([n+]2cc[nH]c2)[n+]2cc[nH]c2)c[nH]1 [Ru(Im)6 !Cl3] | 0.005 ± 0.004 | – | 530
6 | Ru(4-MeIm)6 !Cl2 | 0.09 ± 0.07 | – | 1040
